Results from patent publication US11744903B2, “Method for preparing cyclodextrin metal organic framework (CD-MOF) stable in aqueous phase” (Qilu University of Technology, priority 2022, dated 2023).

test: Encapsulation rate of β-CD-MOF for active substances; format: physicochemical; settings: carrier β-CD-MOF; loaded by impregnation, Examples 1-5

SMILES	Encapsulation rate [%]
O=C/C=C/c1ccccc1 [Cinnamic aldehyde, cinnamic aldehyde]	79.68 ± 0.28
O=C1C[C@@H](c2ccc(O)cc2)Oc2cc(O)cc(O)c21 [Naringenin, naringenin]	70.23 ± 0.15
Oc1ccc(C=Cc2cc(O)cc(O)c2)cc1 [Resveratrol, resveratrol]	82.19 ± 0.35

More lines, now with the values ahead:

Encapsulation rate [%]	SMILES
76.40 ± 0.67	Cc1coc2c1C(=O)C(=O)c1c-2ccc2c1CCCC2(C)C [Tanshinone IIA, tanshinone IIA]
76.34 ± 0.23	COc1cc2c(=O)c(-c3ccc(O)cc3)coc2cc1O [Glycitein, glycitein]
